Consider 1 compound from US20250281414A1, “HIGH DOSE ENDOXIFEN FORMULATIONS AND METHODS OF USE” (Atossa Therapeutics, Inc., priority 2022, published 2025).

Series [1] in a line: Solubility of (Z)-endoxifen at pH 6.8 with and without Polysorbate 80. The series is classed as physicochemical. The procedure: This example describes development of a dissolution assay to measure dissolution of endoxifen formulations. Since solubility of endoxifen decreases as pH becomes less acidic, as shown in EXAMPLE 1, additional experiments were performed to improve solubility of endoxifen in the pH 6.8 buffer solution. Polysorbate 80 (PS80), a nonionic surfactant, was added in varying concentrations to improve solubility and mimic an intestinal environment. Surfactants, such as polysorbate 80, create micelles in the medium that mimic the bile acid aggregates in the small intestine. These micelles facilitate the diffusion and transport of product into the medium.

Series [2] in a line: pH-dependent solubility of (Z)-endoxifen. The series is classed as physicochemical. The following applies: for solubility: read-out: Solubility Z-form. The procedure:
This example describes pH-dependent solubility of (Z)-endoxifen. (Z)-endoxifen was dissolved in solution under different pH conditions, and the solubility was measured. Since (Z)-endoxifen converts to the E-form under acidic conditions, the solubility of (Z)-endoxifen and (E)-endoxifen were measured independently, and a ratio of Z-form to E-form was determined.

≈ marks a conversion by molar mass, not a printed value.

Broadly, the solubility is the concentration that dissolves in the medium under given conditions. In the case of `CC/C(=C(\c1ccc(O)cc1)c1ccc(OCCNC)cc1)c1ccccc1` [(Z)-endoxifen], the solubility was 8.14 µg/mL (≈ 21.8 µM) in series [1] (aqueous buffer, pH 6.8 Buffer (Control), no Polysorbate 80); 58.3 µg/mL (≈ 156 µM) in series [1] (pH 6.8 buffer with 0.5% Polysorbate 80, pH 6.8, aqueous with cosolvent or surfactant or cyclodextrin); 62.1 µg/mL (≈ 166 µM) in series [1] (pH 6.8 buffer with 1.0% Polysorbate 80, pH 6.8, aqueous with cosolvent or surfactant or cyclodextrin); 1050 µg/mL (≈ 2800 µM) in series [2] (solution at pH 1.2, pH 1.2, simulated gastric fluid); 250 µg/mL (≈ 668 µM) in series [2] (solution at pH 4.5, pH 4.5, aqueous buffer); 203 µg/mL (≈ 543 µM) in series [2] (solution at pH 5.0, pH 5, aqueous buffer). The solubility in series [2] (solution at pH 5.5, pH 5.5, aqueous buffer) was 43.5 µg/mL (≈ 116 µM); in series [2] (solution at pH 6.0, pH 6, aqueous buffer) it was 27.8 µg/mL (≈ 74.4 µM); in series [2] (solution at pH 6.8, pH 6.8, aqueous buffer), 4.26 µg/mL (≈ 11.4 µM); in series [2] (water), 0.78 µg/mL (≈ 2.09 µM). Further, the “Z-form to E-form equilibration” value in series [2] (pH 6.8) is recorded as “below the limit of detection”.
